From patent publication US7605153B2, “Use of paullone derivatives for the production of medicaments for the treatment of mucoviscidosis and diseases related to protein addressing errors in cells” (Centre National de la Recherche Scientifique - CNRS, priority 2005, dated 2009)
Values belong to the molecule of their own block, whether it stands above or below them.

What was measured:
delF508-CFTR [1] = target: T1, delF508-CFTR (Homo sapiens, UniProt P13569, DEL508-508); assay: iodide efflux, delF508 addressing in CF15 cells; format: cell-based; conditions: for effect of known CFTR inhibitors on delF508 activity after treatment with kenpaullone: CF15 cells treated with kenpaullone, iodide transport; for delF508-CFTR activity (iodide efflux) normalised to MPB-91 standard treatment: CF15 cells treated 2 hrs at 37° C., stimulation 10 μM Forskoline+30 μM Genisteine, 250 μM MPB-91 for 2 hrs = 100%, alsterpaullone 100 μM
T1 construct: CF15 human lung epithelial cells homozygous for the delF508 deletion; endogenous in cells; host or cells: CF15 human nasal/lung epithelial cells, homozygous delF508
T1 sequence (P13569 with tags, fused parts or gaps DEL508-508): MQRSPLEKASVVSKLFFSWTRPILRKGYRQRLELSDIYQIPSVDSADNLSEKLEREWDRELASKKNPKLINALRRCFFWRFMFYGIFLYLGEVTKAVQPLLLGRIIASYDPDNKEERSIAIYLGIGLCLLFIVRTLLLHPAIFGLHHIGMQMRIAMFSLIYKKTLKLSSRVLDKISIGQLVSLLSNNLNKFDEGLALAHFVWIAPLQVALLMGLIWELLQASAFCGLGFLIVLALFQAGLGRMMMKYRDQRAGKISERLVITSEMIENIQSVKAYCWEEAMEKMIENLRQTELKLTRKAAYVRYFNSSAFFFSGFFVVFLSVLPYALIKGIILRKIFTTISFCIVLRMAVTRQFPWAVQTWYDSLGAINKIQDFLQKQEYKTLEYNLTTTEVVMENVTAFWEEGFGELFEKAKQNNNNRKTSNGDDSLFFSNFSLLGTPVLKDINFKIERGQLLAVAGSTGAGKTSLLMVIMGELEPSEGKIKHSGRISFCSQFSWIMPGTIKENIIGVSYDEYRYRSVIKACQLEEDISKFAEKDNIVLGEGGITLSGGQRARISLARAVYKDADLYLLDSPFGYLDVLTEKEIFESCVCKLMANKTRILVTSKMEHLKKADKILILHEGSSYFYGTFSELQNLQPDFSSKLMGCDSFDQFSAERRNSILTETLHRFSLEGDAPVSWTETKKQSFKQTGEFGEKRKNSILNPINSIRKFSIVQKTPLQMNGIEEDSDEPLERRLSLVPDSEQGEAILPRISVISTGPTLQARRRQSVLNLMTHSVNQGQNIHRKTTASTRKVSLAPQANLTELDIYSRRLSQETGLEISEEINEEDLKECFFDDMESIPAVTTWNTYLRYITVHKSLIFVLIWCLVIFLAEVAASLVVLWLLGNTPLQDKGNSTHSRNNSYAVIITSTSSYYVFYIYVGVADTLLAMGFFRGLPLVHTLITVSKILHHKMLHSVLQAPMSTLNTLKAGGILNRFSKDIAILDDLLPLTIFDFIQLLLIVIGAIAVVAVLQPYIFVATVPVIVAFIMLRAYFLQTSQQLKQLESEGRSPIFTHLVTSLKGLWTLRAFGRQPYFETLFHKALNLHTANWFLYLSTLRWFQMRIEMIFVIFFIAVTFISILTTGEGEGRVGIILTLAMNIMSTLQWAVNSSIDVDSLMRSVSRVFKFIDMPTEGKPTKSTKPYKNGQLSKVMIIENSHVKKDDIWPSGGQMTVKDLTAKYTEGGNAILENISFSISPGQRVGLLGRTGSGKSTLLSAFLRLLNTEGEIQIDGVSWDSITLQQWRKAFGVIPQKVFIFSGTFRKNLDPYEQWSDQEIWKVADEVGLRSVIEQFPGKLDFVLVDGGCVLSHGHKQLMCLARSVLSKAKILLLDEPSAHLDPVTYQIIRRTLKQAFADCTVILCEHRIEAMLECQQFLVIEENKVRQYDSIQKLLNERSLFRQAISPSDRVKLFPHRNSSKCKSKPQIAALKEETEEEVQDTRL
Experimental: CF15 cells: CF15 cells are human nasal epithelial cells expressing the AF508-CFTR gene.
The cells are incubated in an appropriate medium in 24-well plates. […] The iodide equilibrates on either side of the cell membrane. The following steps are performed using a robot (MultiPROBE, Packard): the loading medium is rinsed with efflux medium in order to eliminate extracellular radioactivity. The supernatant is collected every minute into haemolysis tubes and the medium is replaced by an equivalent volume of medium (500 μl). No drug is added to the samples taken in the first three minutes in order to obtain a stable baseline characterising the passive exit of I ions. The 7 samples that follow are obtained in the presence of the molecule to be tested. At the end of the experiment, the cells are lysed by adding 500 μl of 0.1 N NaOH/0.1% SDS (30 min), which allows determining the level of radioactivity remaining inside the cell. The radioactivity present in the haemolysis tubes is measured as counts per minute (cpm) using a gamma counter (Cobra II, Packard). […] This iodide flux is represented by a graph. In order to quantify the iodide efflux due to administration of the tested molecule, the relative flux is calculated as follows in order to ignore the basal flux: Relative velocity (min^−1)=Rpeak−Rbasal. […] The results are presented in the form of a mean+/−SEM. Student's statistical test is used to compare the effect of the various drugs with the controls (the corresponding P<0.01 values are considered to be statistically significant).
The study of delF508-CFTR protein addressing is performed in the laboratory by using a combination of pharmacological, cellular imagery, biochemical and electrophysiological tests on CF15 human lung epithelial cells homozygous for the delF508 deletion. For each experiment, the addition of a cocktail (10 μM Forskoline+30 μM Genisteine) allows activation of the CFTR when the latter is localised at the membrane. This allows an iodide efflux to be observed if delF508 addressing has been restored.

GSK-3 = conditions: cited from earlier work
CHO-WT cells = assay: MTT cytotoxicity test; format: cell-based, Chinese Hamster; conditions: CHO-WT cells incubated 2 hrs, different concentrations
Experimental: CHO-WT cells: CHO (Chinese Hamster Ovary) cells are fibroblasts transfected with the wild-type CFTR gene (CFTR-WT). These cells will therefore overexpress the CFTR protein.
The MTT cytotoxicity test is a […] test based on the capacity of mitochondrial dehydrogenases to metabolise MTT (a yellow tetrazolium salt) into formazan (purple). The absorbance is proportional to the concentration of converted dye and can then be measured by spectrophotometry. The cells are incubated in 96-well microplates in the presence of the agent to be tested for 2 hours. Three controls are performed: 100% live cells: cells without any agent; 0% live cells: cells left under normal atmosphere; blank: medium without cells. The cells are rinsed with RPMI medium without phenol red in order for the colour of the medium not to interfere with absorbance measurements. They are then incubated for 4 hours with 100 μl RPMI solution supplemented with MTT (0.5 mg/ml). The medium is eliminated, 100 μl DMSO is added which permit to dissolve the converted dye (formazan). The absorbance is measured by spectrophotometry at 570 nm (purple); 630 nm (background noise). In order to ignore the background noise, the following calculation is performed: DOreelle=DO570nm−DO630nm. The results are then normalised with respect to the controls (100% and 0% live cells) and presented in the form of a mean+/−SEM. […]

wild-type CFTR [2] = target: T2, wild-type CFTR (Homo sapiens, UniProt P13569); assay: iodide efflux, CFTR addressing in Calu-3 cells after 2 hrs treatment; format: cell-based; conditions: Calu-3 cells treated for 2 hrs, 100 μM
T2 construct: Calu-3 cells are human lung epithelial cells expressing the wild-type CFTR gene; endogenous in cells; host or cells: Calu-3 human lung epithelial cells
T2 sequence (P13569 whole entry): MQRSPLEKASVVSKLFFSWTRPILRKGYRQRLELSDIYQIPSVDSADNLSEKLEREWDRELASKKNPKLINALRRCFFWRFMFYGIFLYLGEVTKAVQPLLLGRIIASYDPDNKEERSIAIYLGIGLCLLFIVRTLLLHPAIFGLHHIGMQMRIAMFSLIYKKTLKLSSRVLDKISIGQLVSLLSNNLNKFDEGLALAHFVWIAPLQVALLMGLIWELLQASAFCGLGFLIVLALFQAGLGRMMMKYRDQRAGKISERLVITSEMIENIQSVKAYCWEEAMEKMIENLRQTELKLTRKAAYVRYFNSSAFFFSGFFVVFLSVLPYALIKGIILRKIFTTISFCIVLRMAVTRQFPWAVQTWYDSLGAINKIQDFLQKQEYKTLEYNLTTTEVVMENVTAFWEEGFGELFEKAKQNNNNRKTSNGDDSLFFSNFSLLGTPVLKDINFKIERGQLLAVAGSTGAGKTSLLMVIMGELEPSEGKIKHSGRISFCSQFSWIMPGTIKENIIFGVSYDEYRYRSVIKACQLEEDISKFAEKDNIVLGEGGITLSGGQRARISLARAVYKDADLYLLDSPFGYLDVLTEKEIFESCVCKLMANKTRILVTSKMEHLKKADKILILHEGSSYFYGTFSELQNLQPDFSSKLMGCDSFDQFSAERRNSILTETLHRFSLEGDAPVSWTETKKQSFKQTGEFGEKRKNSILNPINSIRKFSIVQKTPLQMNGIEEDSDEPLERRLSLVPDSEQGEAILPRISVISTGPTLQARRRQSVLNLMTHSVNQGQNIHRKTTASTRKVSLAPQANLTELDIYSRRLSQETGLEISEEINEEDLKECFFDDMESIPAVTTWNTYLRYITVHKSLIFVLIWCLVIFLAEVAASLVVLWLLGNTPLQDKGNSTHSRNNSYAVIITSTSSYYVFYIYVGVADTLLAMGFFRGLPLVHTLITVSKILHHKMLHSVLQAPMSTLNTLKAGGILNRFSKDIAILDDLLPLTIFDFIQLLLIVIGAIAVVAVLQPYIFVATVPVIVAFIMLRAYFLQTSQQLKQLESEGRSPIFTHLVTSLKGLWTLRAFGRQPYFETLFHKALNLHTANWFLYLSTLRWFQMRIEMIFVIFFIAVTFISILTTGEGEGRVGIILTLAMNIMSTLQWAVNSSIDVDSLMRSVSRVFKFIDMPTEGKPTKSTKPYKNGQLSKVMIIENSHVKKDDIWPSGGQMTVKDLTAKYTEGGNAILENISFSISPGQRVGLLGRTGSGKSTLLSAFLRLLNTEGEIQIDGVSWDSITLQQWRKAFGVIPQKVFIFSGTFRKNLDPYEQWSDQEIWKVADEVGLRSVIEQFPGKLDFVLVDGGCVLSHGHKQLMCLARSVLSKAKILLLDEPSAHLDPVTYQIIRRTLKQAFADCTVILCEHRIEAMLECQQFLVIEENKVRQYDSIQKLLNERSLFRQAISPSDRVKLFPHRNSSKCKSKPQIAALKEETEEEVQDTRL
Experimental: (§1) Calu-3 cells: Calu-3 cells are human lung epithelial cells expressing the wild-type CFTR gene.
(§2) Measurements of chloride ion transport in the cells were performed using the radioactive iodide efflux technique (Becq et al., Journal of Biological Chemistry 274, 27415-27425 (1999); Dormer et al., Journal of Cell Science 114, 4073-4081 (2001). The ^125I tracer is incorporated into the intracellular milieu. Then, the quantity of radiotracer coming out of the cell is then measured after adding various pharmacological agents. Iodide is used as a tracer of chloride ion transport. ^125I has the advantage of being short-lived compared to other markers such as ^35Cl (respective half-lives: […] and 300,000 years).
(§3) The cells are incubated in an appropriate medium in 24-well plates. The cells are rinsed twice with efflux medium (136.6 mM NaCl, 5.4 mM KCl, 0.3 mM KH2PO4, 0.3 mM NaH2PO4, 4.2 mM NaHCO3, 1.3 mM CaCl2, 0.5 mM MgCl2, 0.4 mM MgSO4, 10 mM HEPES, 5.6 mM D-glucose) in order to eliminate dead cells, which release radioactivity in an anarchic fashion. […] The following steps are performed using a robot (MultiPROBE, Packard): the loading medium is rinsed with efflux medium in order to eliminate extracellular radioactivity. […] The radioactivity present in the haemolysis tubes is measured as counts per minute (cpm) using a gamma counter (Cobra II, Packard). […]

wild-type CFTR [3] = target: T2, wild-type CFTR; assay: iodide efflux, CFTR activity in Calu-3 cells (test as activator); format: cell-based; conditions: n=8, controls forskoline 5 μM, MPB-91 250 μM
Experimental: as §1, §2, §3

[4] = in vivo; cited from earlier work
delF508-CFTR [5] = target: T1, delF508-CFTR; assay: immunolabelling, cellular localisation of delF508-CFTR in CF15 cells; format: cell-based; conditions: 100 μM
Experimental: Immunolabelling allows visualising the cellular localisation of the CFTR protein by an anti-CFTR primary antibody (Ab), and a secondary Cy3-labelled fluorescent antibody directed against the primary antibody.
The cells are first seeded on cover slips in an appropriate culture medium. The cells are then washed 3 times with TBS (157 mM NaCl, […] Tris base, pH 7.4) of 5 min. each time and then fixed by adding 3% TBS-paraformaldehyde for 20 min. After 3 washes with TBS (5 min), the cells are incubated with 0.1% TBS-triton (10 min) to make holes in the cell membrane, and then washed 3 times with TBS before being exposed to 0.5% TBS-BSA-0.05% saponin for 1 hr. The cells are then incubated with the primary anti-CFTR C terminal antibody (2 μg/ml) for 1 hr. The cells are washed 3 times (5 min. each) with TBS-BSA-saponin before incubating with the GAM-cy3 secondary antibody ( 1/400) for 1 hr. After 2 TBS washes (5 min. each), the nuclei are labelled by incubating with Topro3 ( 1/1,000) for 5 min. Finally, the cover slips can be mounted on a glass slide after 3 final TBS washes of 5 min. each. The slides are observed with a confocal microscope (Bio-Rad) using laser excitation at appropriate wave-lengths. In order to differentiate Cy3 from Topro3 labelling, the colour of the Topor3 fluorescence has been changed to blue (colour of the nuclei). […]

SMILES: O=S(=O)(O)c1cc(N=C=S)ccc1C=Cc1ccc(N=C=S)cc1S(=O)(=O)O [DIDS]
effect of known CFTR inhibitors on delF508 activity after treatment with kenpaullone (delF508-CFTR [1]): insensitive

SMILES: COc1ccc(Cl)cc1C(=O)NCCc1ccc(S(=O)(=O)NC(=O)NC2CCCCC2)cc1 [glibenclamide]
effect of known CFTR inhibitors on delF508 activity after treatment with kenpaullone (delF508-CFTR [1]): blocked

SMILES: O=C1Cc2c([nH]c3ccc(Br)cc23)-c2ccccc2N1 [kenpaullone]
selectivity for GSK-3 inhibition (GSK-3): highly selective | cell viability (MTT) (CHO-WT cells): viable at all concentrations | CFTR activity after treatment (wild-type CFTR addressing) (wild-type CFTR [2]): not significantly different from the controls | activation of wild-type CFTR or other anionic transporter (wild-type CFTR [3]): not found to be an activator | toxicity in animals [4]: only very slight toxicity | EC50 (delF508-CFTR [1]): 22 ± 1.7 µM | delF508-CFTR activity (iodide efflux) normalised to MPB-91 standard treatment (delF508-CFTR [1]): higher than that obtained with MPB-91 | localisation of delF508 protein (delF508-CFTR [5]): redirect the delF508 protein towards the membrane

The remaining lines, values ahead:

effect of known CFTR inhibitors on delF508 activity after treatment with kenpaullone (delF508-CFTR [1]): blocked
SMILES: O=C(O)c1ccccc1Nc1ccccc1 [DPC]

delF508-CFTR activity (iodide efflux) normalised to MPB-91 standard treatment (delF508-CFTR [1]): no effect
SMILES: O=C1Cc2c([nH]c3ccc([N+](=O)[O-])cc23)-c2ccccc2N1 [alsterpaullone]
